Entries after “also recorded” stand apart in the source; their conditions may differ.
How the values were obtained:
[1] = reputed; EPO Publication No. 0184162; cited from earlier work
[2] = system: mouse T lymphocytes (Splenic T-cells stimulated with ionomycin + PMA); assay: T-cell proliferation assay (ionomycin + PMA stimulated, tritiated thymidine uptake); format: cell-based, mouse (C57B1/6)
Protocol: The principle of this assay is to measure the proliferation of mouse T lymphocytes stimulated with the combination of ionomycin plus PMA. A positive sample, e.g. FK-506, in this assay will inhibit T-cell proliferation, as indicated by reduced tritiated thymidine uptake.
T-Cell Proliferation Assay
Purified Compound I, as prepared by HPLC above, was dissolved in absolute ethanol at 1 mg/ml.
Spleens from C57B1/6 mice were taken under sterile conditions and gently dissociated in ice-cold RPMI 1640 culture medium (GIBCO, Grand Island, N.Y.) supplemented with 10% heat-inactivated fetal calf serum (GIBCO). Cells were pelleted by centrifugation at 1500 rpm for 8 minutes. Contaminating red cells were removed by treating the pellet with ammonium chloride lysing buffer (GIBCO) for 2 minutes at 4° C. […]
Purified T lymphocytes were resuspended at 2.5×10^5 cells/ml in complete culture medium composed of RPMI 1640 medium with 10% heat-inactivated fetal calf serum, […], 1 mM sodium pyruvate, 2×10^-5 M 2-mercaptoethanol and 50 μg/ml gentamycin. […] Radioactivity of filter discs corresponding to individual wells was measured by standard liquid scintillation counting methods (Betacounter). Mean counts per minute of replicate wells were calculated and the results expressed as percent inhibition of tritiated thymidine uptake (proliferation) as follows: [formula] […]

Compound | effectiveness as immunosuppressant relative to cyclosporin [1] [times] | Inhibition of T-cell proliferation on addition of IL2 ([2]; 50 units/ml recombinant IL2 added at the initiation of culture) | immunosuppressant activity (inhibition of T-cell activation) ([2]; qualitative)
C=CC[C@@H]1/C=C(\C)C[C@H](C)C[C@H](OC)[C@H]2O[C@@](O)(C(=O)C(=O)N3CCCC[C@H]3C(=O)O[C@H](/C(C)=C/[C@@H]3CC[C@@H](O)[C@H](OC)C3)[C@H](C)[C@@H](O)CC1=O)[C@H](C)C[C@@H]2OC [FK-506] | 100 | – | –
CC[C@@H]1C=C2COC1(O)C[C@H](O)[C@@H](C)[C@@H](/C(C)=C/[C@@H]1CC[C@@H](O)[C@H](OC)C1)OC(=O)[C@@H]1CCCCN1C(=O)C(=O)[C@]1(O)O[C@H]([C@@H](OC)C[C@@H](C)C2)[C@@H](OC)C[C@H]1C [Compound I] | – | reversed | positive inhibition of T-cell activation; also recorded: positive immunosuppressive activity
